Our source for the T/C values is PubChem BioAssay AID256 (DTP/NCI, 2004).

This experiment deals with CD2F1 mice, L1210 leukemia ip, survival T/C. The experiment can be described thus: NCI In Vivo Anticancer Drug Screen. Data for tumor model L1210 Leukemia (intraperitoneal) in CD2F1 (CDF1) mice. The settings on record: higher = longer survival. An outline of the steps: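 Vehicle-treated tumor-bearing mice served as controls (C) for compound-treated mice (T). Reported figure is T divided by C.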

[1] abbreviates: endpoint: mean survival time, dose: 100.0 mg/kg/injection, schedule: Q04DX003 (ip), vehicle: saline with Tween-80.
Where [2] appears, read: endpoint: mean survival time, dose: 200.0 mg/kg/injection, schedule: Q04DX003 (ip), vehicle: saline with Tween-80.
The mark [3] stands for this setting: endpoint: mean survival time, dose: 400.0 mg/kg/injection, schedule: Q04DX003 (ip), vehicle: saline with Tween-80.
Setting [4] is: endpoint: mean survival time, dose: 200.0 mg/kg/injection, schedule: Q04DX003 (ip), vehicle: saline.
Where [5] appears, read: endpoint: mean survival time, dose: 50.0 mg/kg/injection, schedule: Q04DX003 (ip), vehicle: saline with Tween-80.
The mark [6] stands for this setting: endpoint: mean survival time, dose: 100.0 mg/kg/injection, schedule: Q01DX009 (ip), vehicle: saline with Tween-80.
[7] abbreviates: endpoint: mean survival time, dose: 200.0 mg/kg/injection, schedule: Q01DX009 (ip), vehicle: saline with Tween-80.
[8] abbreviates: endpoint: mean survival time, dose: 400.0 mg/kg/injection, schedule: Q01DX009 (ip), vehicle: saline with Tween-80.

Several values for one entry are separate records, joined by “and”; a condition that tells them apart may be missing. Identical values can stand only once. Toxic doses and inconclusive results are not listed.

Turning to `Cc1ccc(C(=O)O)cc1`, the T/C under setting [1] was 101 % of control, the T/C under setting [2] is 93 % of control and the T/C under setting [3] was 97 % of control.
Consider `Cc1c(C)c(CSC#N)c(C)c(C)c1CSC#N`, for which the T/C reads like this: (endpoint: mean survival time, dose: 75.0 mg/kg/injection, schedule: Q04DX003 (ip), vehicle: saline) 98 % of control; (endpoint: mean survival time, dose: 150.0 mg/kg/injection, schedule: Q04DX003 (ip), vehicle: saline) 102 % of control; (endpoint: mean survival time, dose: 300.0 mg/kg/injection, schedule: Q04DX003 (ip), vehicle: saline) 95 % of control.
Take `COC(=O)C1=CCCN(C)C1`: the T/C by setting is: (endpoint: mean survival time, dose: 12.5 mg/kg/injection, schedule: Q01DX009 (ip), vehicle: saline) 98 % of control; (endpoint: mean survival time, dose: 25.0 mg/kg/injection, schedule: Q01DX009 (ip), vehicle: saline) 104 % of control; (endpoint: mean survival time, dose: 50.0 mg/kg/injection, schedule: Q01DX009 (ip), vehicle: saline) 98 % of control.
`NC(=O)NO`: the T/C was 95 % of control (endpoint: mean survival time, dose: 4.0 mg/kg/injection, schedule: Q03HX024 (ip), vehicle: saline); 97 % of control (endpoint: mean survival time, dose: 8.0 mg/kg/injection, schedule: Q03HX024 (ip), vehicle: saline); 90 % of control (endpoint: mean survival time, dose: 62.0 mg/kg/injection, schedule: Q03HX024 (ip), vehicle: saline); 110 % of control (endpoint: mean survival time, dose: 100.0 mg/kg/injection, schedule: Q03DX003 (ip), vehicle: saline); 100 % of control under setting [4]; 120 % of control (endpoint: median survival time, dose: 25.0 mg/kg/injection, schedule: Q03HX024 (ip), vehicle: saline). Also, the T/C (endpoint: median survival time, dose: 100.0 mg/kg/injection, schedule: Q06HX016 (ip), vehicle: saline) was 99 % of control and the T/C (endpoint: median survival time, dose: 200.0 mg/kg/injection, schedule: Q06HX016 (ip), vehicle: saline) was 99 % of control.
With `C1C[N-]CC[N-]1.[Cl][Pt+2][Cl]`, the T/C was 97 % of control (endpoint: mean survival time, dose: 7.8 mg/kg/injection, schedule: Q04DX003 (ip), vehicle: saline with Tween-80); 90 % of control (endpoint: mean survival time, dose: 62.5 mg/kg/injection, schedule: Q04DX003 (ip), vehicle: saline with Tween-80); 94 % of control (endpoint: mean survival time, dose: 125.0 mg/kg/injection, schedule: Q04DX003 (ip), vehicle: saline with Tween-80).
As to `NCCCN1CCOCC1`, the T/C (endpoint: mean survival time, dose: 100.0 mg/kg/injection, schedule: Q01DX001 (ip), vehicle: saline) is 98 % of control; the T/C (endpoint: mean survival time, dose: 200.0 mg/kg/injection, schedule: Q01DX001 (ip), vehicle: saline) was 101 % of control; the T/C (endpoint: mean survival time, dose: 400.0 mg/kg/injection, schedule: Q01DX001 (ip), vehicle: saline) is 95 % of control.
Consider `COC(=O)c1cc2c3ccccc3ncc2c2ccccc12`, for which the T/C reads like this: (endpoint: mean survival time, dose: 25.0 mg/kg/injection, schedule: Q04DX003 (ip), vehicle: saline with Tween-80) 89 % of control; under setting [5], 89 % of control; under setting [1], 87 % of control; under setting [2], 89 % of control; under setting [3], 89 % of control.
With `Clc1ccccc1/C=C1/c2ccccc2-c2nc3ccccc3cc21`, the T/C reads like this: under setting [6], 97 % of control; under setting [1], 89 % of control; under setting [7], 105 % of control; under setting [2], 100 % of control; under setting [8], 102 % of control; under setting [3], 95 % of control.
For the compound `CC1CCC2(CC1=O)C(C)CC(=O)C2C(C)C` (stereo not given), the T/C was 95 % of control (endpoint: mean survival time, dose: 100.0 mg/kg/injection, schedule: Q04DX003 (ip), vehicle: saline); 98 % of control under setting [4]; 98 % of control (endpoint: mean survival time, dose: 400.0 mg/kg/injection, schedule: Q04DX003 (ip), vehicle: saline).
With `NC(=S)c1ccc(C(N)=S)cc1`, the T/C by setting is: (endpoint: mean survival time, dose: 100.0 mg/kg/injection, schedule: Q01DX001 (ip), vehicle: Klucel (hydroxypropylcellulose) (HPC)) 89 % of control; under setting [6], 94 % of control; under setting [1], 97 % of control; (endpoint: mean survival time, dose: 200.0 mg/kg/injection, schedule: Q01DX001 (ip), vehicle: Klucel (hydroxypropylcellulose) (HPC)) 89 % of control; under setting [7], 93 % of control; under setting [2], 97 % of control. For the same compound, the T/C under setting [8] was 90 % of control and the T/C under setting [3] is 98 % of control.
Turning to `COc1ccc(CC(=O)C(C)C(O)(C(F)(F)F)C(F)(F)F)cc1OC` (stereo not given), the T/C reads like this: under setting [1], 108 % of control; under setting [2], 102 % of control; under setting [3], 103 % of control.
Consider `CN(/N=N/c1nc[nH]c1C(N)=O)C1CCCCC1`, for which the T/C (endpoint: mean survival time, dose: 7.8 mg/kg/injection, schedule: Q01DX009 (ip), vehicle: Klucel (hydroxypropylcellulose) (HPC)) was 105 % of control; the T/C (endpoint: mean survival time, dose: 31.2 mg/kg/injection, schedule: Q01DX009 (ip), vehicle: Klucel (hydroxypropylcellulose) (HPC)) is 124 % of control; the T/C (endpoint: mean survival time, dose: 125.0 mg/kg/injection, schedule: Q01DX009 (ip), vehicle: Klucel (hydroxypropylcellulose) (HPC)) was 122 % of control; the T/C (endpoint: mean survival time, dose: 250.0 mg/kg/injection, schedule: Q01DX009 (ip), vehicle: Klucel (hydroxypropylcellulose) (HPC)) is 70 % of control.
With `CCOC(=O)C1=C(C)NC(C)=C(C(=O)OCC)C1c1ccccc1`, the T/C was 98 % of control (endpoint: mean survival time, dose: 50.0 mg/kg/injection, schedule: Q01DX009 (ip), vehicle: saline with Tween-80); 97 % of control under setting [5]; 102 % of control under setting [6]; 97 % of control and 100 % of control under setting [1]; 102 % of control under setting [7]; 90 % of control and 96 % of control under setting [2]. In addition, the T/C under setting [3] was 103 % of control.
Regarding `CN(Cc1cnc2nc(N)nc(N)c2n1)c1ccc(C(=O)NC(CCC(=O)NC(CCC(=O)NC(CCC(=O)O)C(=O)O)C(=O)O)C(=O)O)cc1` (stereo not given), the T/C by setting is: (endpoint: mean survival time, dose: 0.5 mg/kg/injection, schedule: Q01DX005 (ip), vehicle: sodium bicarbonate) 98 % of control; (endpoint: mean survival time, dose: 1.0 mg/kg/injection, schedule: Q01DX005 (ip), vehicle: sodium bicarbonate) 111 % of control and 112 % of control; (endpoint: mean survival time, dose: 2.0 mg/kg/injection, schedule: Q01DX005 (ip), vehicle: sodium bicarbonate) 114 % of control and 121 % of control; (endpoint: mean survival time, dose: 8.0 mg/kg/injection, schedule: Q01DX005 (ip), vehicle: sodium bicarbonate) 152 % of control and 153 % of control; (endpoint: mean survival time, dose: 16.0 mg/kg/injection, schedule: Q01DX005 (ip), vehicle: sodium bicarbonate) 158 % of control.
With `CC(C)[C@]12O[C@H]1[C@@H]1O[C@]13[C@]1(O[C@H]1C[C@H]1C4=C(CC[C@@]13C)C(=O)OC4)[C@@H]2O`, the T/C (endpoint: mean survival time, dose: 0.8 micrograms/kg/injection, schedule: Q01DX009 (ip), vehicle: saline + alcohol) is 96 % of control; the T/C (endpoint: mean survival time, dose: 1.6 micrograms/kg/injection, schedule: Q01DX009 (ip), vehicle: saline + alcohol) is 91 % of control; the T/C (endpoint: mean survival time, dose: 6.3 micrograms/kg/injection, schedule: Q01DX009 (ip), vehicle: saline + alcohol) was 93 % of control; the T/C (endpoint: mean survival time, dose: 12.5 micrograms/kg/injection, schedule: Q01DX009 (ip), vehicle: saline + alcohol) is 95 % of control; the T/C (endpoint: mean survival time, dose: 25.0 micrograms/kg/injection, schedule: Q01DX009 (ip), vehicle: saline + alcohol) is 96 % of control; the T/C (endpoint: mean survival time, dose: 50.0 micrograms/kg/injection, schedule: Q01DX009 (ip), vehicle: saline + alcohol) was 90 % of control. The T/C by setting is: (endpoint: mean survival time, dose: 100.0 micrograms/kg/injection, schedule: Q01DX009 (ip), vehicle: saline + alcohol) 110 % of control; (endpoint: median survival time, dose: 0.02 mg/kg/injection, schedule: Q03HX024 (ip), vehicle: saline + alcohol) 111 % of control; (endpoint: median survival time, dose: 0.03 mg/kg/injection, schedule: Q03HX024 (ip), vehicle: saline + alcohol) 120 % of control; (endpoint: median survival time, dose: 0.06 mg/kg/injection, schedule: Q01DX009 (ip), vehicle: saline + alcohol) 104 % of control; (endpoint: median survival time, dose: 0.06 mg/kg/injection, schedule: Q01DX009 (sc), vehicle: saline + alcohol) 112 % of control; (endpoint: median survival time, dose: 0.13 mg/kg/injection, schedule: Q01DX009 (ip), vehicle: saline + alcohol) 120 % of control. The T/C by setting is: (endpoint: median survival time, dose: 0.13 mg/kg/injection, schedule: Q01DX009 (sc), vehicle: saline + alcohol) 104 % of control; (endpoint: median survival time, dose: 0.25 mg/kg/injection, schedule: Q04DX003 (ip), vehicle: saline + alcohol) 112 % of control; (endpoint: median survival time, dose: 0.25 mg/kg/injection, schedule: Q08DX002 (ip), vehicle: saline + alcohol) 107 % of control; (endpoint: median survival time, dose: 0.5 mg/kg/injection, schedule: Q01DX001 (sc), vehicle: saline + alcohol) 105 % of control; (endpoint: median survival time, dose: 0.5 mg/kg/injection, schedule: Q04DX003 (ip), vehicle: saline + alcohol) 120 % of control; (endpoint: median survival time, dose: 0.5 mg/kg/injection, schedule: Q08DX002 (ip), vehicle: saline + alcohol) 115 % of control. For the same compound, the T/C was 107 % of control (endpoint: median survival time, dose: 1.0 mg/kg/injection, schedule: Q01DX001 (sc), vehicle: saline + alcohol); 110 % of control (endpoint: median survival time, dose: 1.0 mg/kg/injection, schedule: Q04DX003 (ip), vehicle: saline + alcohol); 116 % of control (endpoint: median survival time, dose: 1.0 mg/kg/injection, schedule: Q08DX002 (ip), vehicle: saline + alcohol).
